Assay: Human HepG2 cell viability assay in 384 well format
Format: toxicity, cell-based
Set-up: dose 125 nL, time 70.5 hour; concentration not given beside the values
Conditions: HepG2 cells, read-out: Inhibition

| SMILES | cytotoxicity at 70.5 h [%] |
| --- | --- |
| CCCS(=O)(=O)N1CC(=O)N(CCCc2ccccc2)CC(O)C1 (centres undefined) | 10.8 |
| COc1cccc(COCC(=O)N2CCCCCC2)c1 | 17.5 |
| O=C(NCc1ccccc1Cn1cncn1)C1CCCC1 | -3.85 |
| Cc1nc2c(c(NC(C)C)n1)CCN(C(=O)c1cc[nH]n1)CC2 | -8.54 |
| CCN(C)C[C@@H]1CN(Cc2cccc(O)c2)C[C@@H]1CO | -11.8 |
| CCc1cnc(C)nc1NCCNc1nc(C)cc(=O)[nH]1 | 0.367 |
| CN(Cc1ccon1)c1nc(-c2ccccn2)nc2c1CCNCC2 | 12.3 |
| COc1ccc(-c2cc(C(=O)NCCC(C)C)n(C)n2)cc1 | 4.25 |
| CC1(C)OC(=O)N(CC(=O)N2CCC(c3ccccc3Cl)C2)C1=O (centres undefined) | -6.23 |
| CC(C)(C)c1nc(CN2CCCC2Cn2cncn2)no1 (centres undefined) | -5.99 |
| CN1CCN(Cc2cnn(-c3ccc(F)cc3)c2)[C@H]2CS(=O)(=O)C[C@H]21 | -4.08 |
| Cc1nsc(N2CCCN(C(=O)NCc3cccnc3)CC2)n1 | -0.506 |
| CCOCC1CC2(CCN(C(=O)c3ncccn3)CC2)CO1 (centres undefined) | -10.5 |
| CNC(=O)NC(=O)CCN1CCCC1c1nc(C2CCCCC2)co1 (centres undefined) | -7.7 |
| COCC(=O)N1CCCC2(CCN(Cc3cccc(C)n3)C2=O)C1 (centres undefined) | -0.526 |
| COc1ccc(NC(=O)NC(C)Cn2cccn2)cn1 (centres undefined) | -11.6 |
| CC1(C2CCN(CC(N)=O)CC2)CN(Cc2ccccc2)C(=O)CO1 (centres undefined) | -6.63 |
| CC[C@@H]1N(Cc2ccsc2)CCC[C@]12CCC(=O)N2C | 18.9 |
| CCc1cc(CN(C)C(=O)CN2CC3(CCNCC3)OC2=O)on1 | -2.42 |
| CC(C)(C)OC(=O)Cn1cccc(S(=O)(=O)N2CCCC2)c1=O | -12.8 |
| CCc1ccc(O)c(C(=O)NC2CCN(C(=O)OC)CC2)c1 | -10.9 |
| Cc1nc(C)n(CC2CN(Cc3ccc4c(c3)OCCO4)CCO2)n1 (centres undefined) | -14.3 |
| COCCCN1CC2(CCCN(CCn3cc(Cl)cn3)C2)CCC1=O (centres undefined) | -21.9 |

| SMILES | cytotoxicity at 70.5 h [%] |
| --- | --- |
| Cc1ccc(NC2CCN(C(=O)c3sccc3C3CC3)CC2)nn1 | -8.46 |
| CCS(=O)(=O)N1CCc2c(cccc2NC(=O)NCCOC)C1 | -1.31 |
| CN(Cc1ccncc1)C1CC2(CCN(c3ncccn3)CC2)C1 | -3.37 |
| CNC(=O)c1cccc(C2CNCCN2C(=O)c2ccn(C)n2)c1 (centres undefined) | 0.974 |
| COc1ccccc1C(=O)N(Cc1nc(C)cs1)CC1CCCO1 (centres undefined) | 22.1 |
| Nc1nccc(N2CCC(Cc3ccccc3Cl)(C(=O)O)CC2)n1 | -2.75 |
| COc1ccc(Cl)cc1CNC(=O)CN1CCC2(CCOC2)C1 (centres undefined) | 20 |
| COCCN(CCOC)C(=O)c1cc(F)cc2[nH]cnc12 | -4.53 |
| CC(C)C(C(=O)N1CCCN(Cc2cnn(C)c2)CC1)n1cncn1 (centres undefined) | -7.59 |
| CN(C)S(=O)(=O)NCc1cccnc1Oc1ccccc1F | 1.78 |
| O=C(NC[C@H]1CCCN1)c1cc(COc2cccc(C(F)(F)F)c2)[nH]n1 | -2.98 |
| Cc1cc(O)cc(=O)n1CCCC(=O)Nc1n[nH]c2cccc(F)c12 | -16.5 |
| CC(=O)NC1(C(=O)N(C)Cc2c(C)noc2C)CCCCC1 | 20.8 |
| CN(C)C(C(=O)NCC1(N(C)C)CCOCC1)c1ccccc1F (centres undefined) | -7.91 |
| O=C(c1cnco1)N1CCCC(Cc2cccc3ncccc23)C1 (centres undefined) | -0.138 |
| Cc1cc(C)c(CNC(=O)NCCOc2ccc3c(c2)CCC3)c(=O)[nH]1 | -9.44 |
| Fc1ccc(Oc2ccc(CNCC3CNc4ccnn4C3)cn2)cc1 (centres undefined) | -12.4 |
| Cc1cc(CN(C)C(=O)NC(C)c2nncn2C)no1 (centres undefined) | -5.64 |
| CCc1nc(CC)n(CC(=O)NCc2ccccc2C)n1 | -10.6 |
| CCCN(C)CC1CCN(c2ccc(Br)c(C)n2)C1 (centres undefined) | 4.09 |
| Cc1ccc(CN(CCN(C)C)C(=O)Cc2cn3ccccc3n2)o1 | -3.69 |
| c1cc(CN2CCOCC3(CCN(C4CCOCC4)C3)C2)ccn1 (centres undefined) | 6.88 |
| CCc1nc(C2CCCN(C(=O)c3ccccc3Cl)C2)no1 (centres undefined) | -1.75 |

| SMILES | cytotoxicity at 70.5 h [%] |
| --- | --- |
| CC(NCc1cnc(C2CCC2)s1)c1cccc(-n2cccn2)c1 (centres undefined) | 16.3 |
| O=C(c1ccccc1)N1C[C@@H]2CC[C@H](C1)N(S(=O)(=O)c1cccnc1)C2 | -7.07 |
| Cc1ncc(C(=O)N2CCC(C(=O)NC3CCCC3)C2)c(C)n1 (centres undefined) | -6.35 |
| Cc1c(C(C)N)cnn1-c1ccccn1 (centres undefined) | -8.01 |
| c1cc(CN2CCC3(CCOCC3COCC3CC3)CC2)ccn1 (centres undefined) | 0.537 |
| O=C1C(Sc2cnn[nH]2)CCCN1c1ccccc1F (centres undefined) | 19 |
| CCc1nc(CN2CCCN(c3cnc4ccccc4n3)CC2)no1 | -2.11 |
| CC1CCN(Cn2nc(-c3ccc(F)cc3)oc2=O)CC1 | 18.6 |
| Cc1ccc(C(=O)N2CCN(Cc3nc(C(C)C)no3)CC2)c(=O)[nH]1 | 1.28 |
| CN(C)C(=O)COCc1cncc2c1CCN(Cc1ccccn1)C2 | -7.2 |
| CC(C)=CCN1Cc2nnc(C3CCOCC3)n2C(Cc2c[nH]cn2)C1 (centres undefined) | -5.43 |
| N#CCCN1CCC(=Cc2ccccc2)CC1 | -6.02 |
| CC(=O)NS(=O)(=O)c1ccc(F)c(C(F)(F)F)c1 | -6.35 |
| Cc1cc(C)n(CCN2CCOC(CNc3cccnn3)C2)n1 (centres undefined) | -4.33 |
| COCC(C)(O)CNC(=O)c1cc(-c2cc(OC)ccc2OC)nn1C (centres undefined) | 6.52 |
| CSCCCN1CCC(c2nnc(Cn3ccnc3)n2C2CC2)CC1 | -0.0518 |
| CCSc1ccc(C(=O)N2CCCCC2C(=O)NC(C)(C)C)cn1 (centres undefined) | -7.45 |
| CCCS(=O)(=O)c1ccc(N2CCC(Cc3ccccc3)CC2)nn1 | -2.73 |
| O=C(Nc1ccc(Cl)cc1)c1nn(C2CCS(=O)(=O)C2)c2c1CCCC2 (centres undefined) | -19.1 |
| CCS(=O)(=O)NCCCNc1ncnc2cc(F)c(F)cc12 | -0.956 |
| Cc1[nH]c(=O)sc1S(=O)(=O)N1CCCC1C(=O)NCc1ccsc1 (centres undefined) | -4.24 |
| Cc1nocc1C(=O)N1CCOC2(COCCN(CC3CC3)C2)C1 (centres undefined) | -2.08 |
| Cc1nc(NC2CCCC2)c2c(n1)c(C)nn2C | -14.9 |

| SMILES | cytotoxicity at 70.5 h [%] |
| --- | --- |
| COC(=O)c1ccccc1NS(=O)(=O)c1c(C)nn(C)c1C | -6.21 |
| COc1cccc(C(=O)N2CCN(CC(O)c3ccccc3)CC2)c1 (centres undefined) | -9.4 |
| CCc1nnc(CN(CC)C(=O)C2CC(=O)N(Cc3cccnc3)C2)o1 (centres undefined) | -11.4 |
| O=C(c1ccccn1)N1CC(S(=O)(=O)c2ccc(Cl)cc2)C1 | 1.72 |
| CC(C)OCCCNC(=O)NCc1cccc(-n2ccnc2)c1 | -6.74 |
| CC1CCCN(CCNC(=O)c2ccn(-c3ccc(F)cc3)n2)C1 (centres undefined) | -0.389 |
| COc1ccc([C@@H]2CN(Cc3cccnc3N)C[C@H]2NC(C)=O)cc1 | -8.12 |
| COCC1CN(C(=O)c2cccn2C)Cc2cnn(C)c21 (centres undefined) | -0.85 |
| CCS(=O)(=O)CCN1CCCC1c1noc(C)n1 (centres undefined) | -8.31 |
| O=C(c1ccc(=O)[nH]n1)N1CCC(CN2CCOCC2)CC1 | -9.25 |
| O=C(O)[C@@H]1CN(C(=O)CSCCN2CCCC2)C[C@H]1c1ccccc1 | 1.16 |
| COc1cccc(-c2nc3c([nH]2)CC(C)(C)CNC3=O)c1OC | -9.59 |
| CC(C)Nc1ncnc2c1CCNCC2 | 2.95 |
| CC1CCN(C(=O)CSCc2nc(C3CC3)no2)CC1 | -2.56 |
| CC(C)NC(=O)N1CC[C@H]2N(C)CC[C@@]2(C(=O)Nc2cccnc2)CC1 | -10.8 |
| CCN(CC1CCOC1)C(=O)c1ccc(N(C)C)cc1F (centres undefined) | -1.53 |
| CC(C)c1noc(C(C)N2CCN(Cc3ccsc3)CC2)n1 (centres undefined) | -5.78 |
| CC(C)c1nc(CCN(C)C(=O)C2COc3ccccc3C2)no1 (centres undefined) | -3.01 |
| NC(=O)COc1ccc(C2NC(=O)CN2Cc2ccc(Br)cc2)cc1 (centres undefined) | -14.8 |
| COCCN(CCOC)Cc1c(C)nc2ccccc2c1O | 5.31 |
| COc1ccnc(N2CCN(C(=O)Cc3ccsc3)CC2)n1 | -8.71 |
| O=C(c1cc(C2CC2)[nH]n1)N1CCN(Cc2ccsc2)CC1 | 22 |
| Cc1ccsc1[C@@H]1CCN(C(=O)c2ccc(-c3cc[nH]n3)cc2)C[C@H]1O | -10.8 |

| SMILES | cytotoxicity at 70.5 h [%] |
| --- | --- |
| Cc1c(C(C)N)cnn1-c1cccc2ccccc12 (centres undefined) | -5.48 |
| O=C(c1ccc(Cn2cnnn2)cc1)N1CCC(c2ccncc2)CC1 | -3.04 |
| N[C@H]1CC[C@@H](Nc2nccc(CCC(F)(F)F)n2)CC1 | -2.71 |
| O=C(C1CCCC1)N1CC(c2nc(Cc3ccccc3)no2)C1 | -14.5 |
| CCN1CCOC(CNc2nccc(OC)n2)C1 (centres undefined) | -5.64 |
| CN(C1CCN(c2ccccn2)CC1)S(=O)(=O)c1ccc(F)cc1 | -6.89 |
| Cc1cn2nc(N(C)C3CCCN(c4cccnn4)C3)sc2n1 (centres undefined) | -11.5 |
| CC1CN(CCc2ccncc2)CCO1 (centres undefined) | 3.7 |
| COc1ccc(N2CCN(C(=O)c3nc(Cl)sc3C(C)C)CC2)cc1 | -18.9 |
| COCCNS(=O)(=O)c1cccc2c1CN(C(=O)c1cc(C)on1)CC2 | -2.31 |
| CCC[C@@H]1CN(C(=O)c2cnc3ccccc3c2)C[C@H]1NS(C)(=O)=O | -1.26 |
| CCc1c(C)nn(CCNC(=O)C2CCCN(C(=O)N(C)C)C2)c1C (centres undefined) | -10.4 |
| O=C(O)C1CCCCN1C(=O)c1cccc(C(F)(F)F)c1 (centres undefined) | -9.81 |
| Cc1nc(NCc2cccnc2)cc(C2COCCN2)n1 (centres undefined) | -5.63 |
| CO[C@@H]1CC[C@H]2[C@H]1OCCN2Cc1ccc(F)cc1 | -9.94 |
| CCN(Cc1nc2c(cnn2C)c(=O)[nH]1)Cc1ccco1 | -13.6 |
| c1cnn(CC2CN(c3ncnc4c3CCC4)CCO2)c1 (centres undefined) | -9.89 |
| CCN(CCOC)C(=O)c1ccc2c(c1)nc(N1CC[C@H](O)C1)n2C | -8.67 |
| CCN(CC)c1ncc2c(O)nc(C3CCNCC3)cc2n1 | -4.7 |
| CO[C@H]1CN(Cc2c(C)ccc3ncccc23)CC[C@H]1N | 2.94 |
| CC(C)n1ccnc1CN1CCCN(C(=O)c2cc(Cl)c[nH]2)CC1 | -3.72 |
| Cc1ncsc1C(=O)N[C@@H](Cc1ccccc1)C(N)=O | -1.24 |
